For test [1], the system named is cellular pERK in NCI-H1975 cells (EGFR/L858R-T790M). The test is described as follows: pERK Potency Assay. As to conditions: Homo sapiens, 1 hour incubation, Western blot, read-out: IC50 value, cellular pERK level. It counts as cell-based. An excerpt: The purpose of this assay is to measure the ability of test compounds to inhibit SOS1 function in cells. SOS1 activates RAS proteins by catalyzing the conversion of RAS-GDP to RAS-GTP in response to receptor tyrosine kinase activation. Activation of RAS induces a sequence of cellular signaling events that results in increased phosphorylation of ERK at Threonine 202 and Tyrosine 204 (pERK). The procedure described below measured the level of cellular pERK in response to test compounds in NCI-H1975 cells (EGFR/L858R-T790M).
NCI-H1975 cells were grown and maintained using media and procedures recommended by the ATCC. On the day prior to compound addition, cells were plated in 24-well cell culture plates (0.9 ml/well) and grown overnight in a 37° C., 5% CO2 incubator. Test compounds were prepared with 3-fold serial dilutions in DMSO, with a top concentration of 10 mM. On the day of the assay, 100 uL of each test compound diluted at 1:100 in media was added to each well of cell culture plate with final concentrations of the compound spanning 0.5 nM to 10 uM. After the compound was added, the cells were incubated for 1 hour at 37° C., 5% CO2. Following incubation, culture medium was removed, and the cells were washed once with phosphate buffered saline and lysed with lysis buffer (20 mM Tris-HCl, pH 7.5, 150 mM NaCl, 1 mM EDTA, 1 mM EGTA, 0.8% NP-40 plus 2× protease and phosphatase inhibitors). Cellular pERK level was determined using the Western blot analysis and quantified with Liqor software. Signal from Western blot was plotted and IC50 values were determined by fitting a 4-parameter sigmoidal concentration response model.

Test [2] concerns the target T1, protein-protein interaction between SOS1 and KRAS-G12D (Homo sapiens, UniProt Q07889).
T1 construct: The purified GST-SOS1 catalytic domain (residues 564-1049) was first diluted in assay buffer; made in house; host or cells: E. coli BL21 (DE3) for SOS1; E. coli BL21 carrying a BirA plasmid for KRAS-G12D
T1 sequence (Q07889 564-1049): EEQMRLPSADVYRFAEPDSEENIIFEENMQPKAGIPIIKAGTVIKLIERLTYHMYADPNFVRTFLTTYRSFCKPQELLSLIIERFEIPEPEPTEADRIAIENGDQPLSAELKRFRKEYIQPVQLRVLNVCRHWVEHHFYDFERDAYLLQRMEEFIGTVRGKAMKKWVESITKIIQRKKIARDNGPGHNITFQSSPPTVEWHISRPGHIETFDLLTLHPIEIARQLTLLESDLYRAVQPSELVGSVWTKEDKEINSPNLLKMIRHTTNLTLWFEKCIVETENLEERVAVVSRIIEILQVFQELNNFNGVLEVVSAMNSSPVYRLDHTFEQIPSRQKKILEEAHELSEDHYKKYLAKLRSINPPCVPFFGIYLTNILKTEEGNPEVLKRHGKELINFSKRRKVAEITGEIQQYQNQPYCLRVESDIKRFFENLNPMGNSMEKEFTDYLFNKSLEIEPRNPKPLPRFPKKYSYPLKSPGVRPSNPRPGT
In words: HTRF Based Protein-Protein Interaction Assay. It counts as binding. From the text: A KRAS-G12D and SOS1 binding/interaction assay was designed to measure the interaction between KRAS-G12D and SOS1 proteins. Utilizing HTRF (Homogeneous Time-Resolved Fluorescence) technology, the assay enabled simple and rapid characterization of compound and protein interaction in a high throughput format. This assay was used to examine potency of the compounds in inhibiting the protein-protein interaction between SOS1 and KRAS-G12D. […] Low IC50 values are indicative of high potency of the SOS1 inhibitor compound to disrupt SOS1 and Kras-G12D interaction.
Protein Expression and Purification. The corresponding gene sequence to human SOS1 (residues 564-1049, UniProt ID: Q07889; SEQ ID NO: 2) was synthesized and fused in frame with GST expression vector. After the desired sequence was confirmed, plasmid containing the sequence was transformed into the E. coli strain BL21 (DE3). Bacteria were growing at 37° C. in LB media containing 50 μg/ml Kanamycin to give OD600 of 0.6-0.8. Then 0.2 mM IPTG was added to induce protein expression for 16 hours at 17° C. Bacteria were harvested by centrifugation and stored at −80° C. Bacteria pellets were resuspended in lysis buffer (25 mM Tris-HCl, 500 mM NaCl, 2 mM DTT, 2.3% sucrose, 0.3% dextran-10, 1 mM PMSF, pH 7.5) and lysed using high-pressure homogenizer. The lysate was cleared by centrifugation for 30 minutes (12000 rpm at 4° C.). The supernatant containing GST-SOS1 fragment was purified sequentially through Glutathione column and gel filtration (Hiload 16/600 Superdex […] column, Cytiva). The purified GST-SOS1 fragment was confirmed by SDS-PAGE and stored in 25 mM Tris-HCl, 100 mM NaCl, 1 mM DTT, 2.3% sucrose, 0.3% dextran-10, pH 7.5 at −80° C.
Kras-G12D Protein Purification. The sequence corresponding to human KRAS-G12D (residues 1-169, UniProt P01116-2; SEQ ID NO: 1) was synthesized and fused in frame with His-AVI-TEV vector. The plasmid was transformed into the E. coli strain BL21 (containing a plasmid that can generate BirA enzyme). Bacteria were growing at 37° C. in TB media containing 100 μg/ml ampicillin and 50 μg/ml Kanamycin to give OD600 of 0.6-0.8. The 0.5 mM IPTG and 50 mg/l biotin were added to induce protein expression for 16 hours at 25° C. Bacteria were harvested by centrifugation and stored at −80° C. Bacteria pellets were re-suspended in lysis buffer (20 mM Tris-HCl, 500 mM NaCl, 5 mM MgCl2, 2 mM […], 5% glycerol, pH 8.0) and lysed using high-pressure homogenizer. The lysate was cleared by centrifugation for 30 minutes (12000 rpm at 4° C.). The supernatant containing HIS-AVI-TEV-KRAS-G12D fragment was purified sequentially through Ni-NTA column (SMART), Streptactin column (SMART), and gel filtration (Hiload 16/600 Superdex 75 pg, GE). The purified HIS-AVI-TEV-KRAS-G12D fragment was confirmed by SDS-PAGE and stored in 50 mM HEPES-NaOH, 100 mM NaCl, 1 mM DTT, 5 mM MgCl2, pH 7.5 at −80° C.
Protein-Protein Interaction Assay. An assay buffer containing 50 mM HEPES, pH 7.5, 50 mM NaCl, 0.01% Brij-35, 1 mM TCEP, 0.1% BSA was prepared, and concentration series of test compounds were generated spanning from 0.5 nM to 10 μM over 10 3-fold serial dilutions in a 384-well assay plate at a volume of 20 pL. The purified GST-SOS1 catalytic domain (residues 564-1049) was first diluted in assay buffer and 5 μl of SOS1 (final concentration 2.5 nM in assay mixture) was directly dispensed into compound plates. After a spin down at 1000 RPM for 30 seconds, the SOS1/compound mixture was incubated at 25° C. for 15 minutes to allow the reaction between SOS1 and the compound. A KRAS-G12D mixture was prepared by incubation of avi-tagged Kras-G12D (residue 1-169) and GDP in assay buffer containing 10 mM MgCl2 at room temperature for 10 minutes. A KRAS-G12D and GDP mixture (5 μL) was added to the assay plate (final KRAS-G12D was 100 nM and GDP was 10 uM). The plate was centrifuged at 1000 rpm for 30 sec and incubated at 25° C. for 60 minutes. […]
(TR-FRET usually uses a lanthanide donor and a delayed reading to cut background.)

The mark [3] stands for this setting: HTRF, GST-SOS1 2.5 nM, KRAS-G12D 100 nM, GDP 10 uM, read-out: IC50 value, inhibition of SOS1/KRAS-G12D protein-protein interaction.

Where two headings read alike, the source gives them in different places. Where only a bound is given, the exact number is not on record here.

Regarding `C#C[C@@H](Nc1nc(C)nc2cc(=O)n(C3(C(F)F)CC3)cc12)c1cccc(C(F)F)c1C` [Compound 1, (R)-4-((1-(3-(difluoromethyl)-2-methylphenyl)prop-2-yn-1-yl)amino)-6-(1-(difluoromethyl)cyclopropyl)-2-methylpyrido[4,3-d]pyrimidin-7(6H)-one], the IC50 was 100 to 500 nM in test [1] and below 100 nM in test [2] (setting [3]).
With `[2H]C([2H])([2H])n1c(=O)c(C2(F)CCN(C(C)=O)CC2)cc2c(N[C@H](C#C)c3cccc(C(F)(F)F)c3C)nc(C)nc21` [Compound 53], the figures for the IC50 in test [1] and in test [2] (setting [3]) were below 100 nM and 100 to 200 nM, respectively.
Take `[2H]C([2H])([2H])n1c(=O)c(C2(OC)CCN(C(C)=O)CC2)cc2c(N[C@H](C#C)c3cccc(C(F)(F)F)c3C)nc(C)nc21` [Compound 50, 6-(1-acetyl-4-methoxypiperidin-4-yl)-8-(^2H3)methyl-2-methyl-4-{[(1R)-1-[2-methyl-3-(trifluoromethyl)phenyl]prop-2-yn-1-yl]amino}-7H,8H-pyrido[2,3-d]pyrimidin-7-one]: the values for the IC50 in test [1] and in test [2] (setting [3]) were below 100 nM and 100 to 200 nM, respectively.
With `C#C[C@@H](Nc1ncnc2c1cc(C1(O)CC3CCC(C1)N3C(C)=O)c(=O)n2C)c1cccc(C(F)F)c1F` (some centres unmarked) [Compound 63], in test [1], the IC50 fell in the range of 100 to 500 nM.
Same read-out and setting: under `C#C[C@@H](Nc1ncnc2c1cc(C1(NC(C)=O)CC3CCC(C1)N3C(C)=O)c(=O)n2C)c1cccc(C(F)F)c1F` (some centres unmarked) [Compound 64] stands 100 to 500 nM; under `C#C[C@@H](Nc1ncnc2c1cc(C1(N)CCOCC1)c(=O)n2C)c1cccc(C(F)(F)F)c1C` [Compound 60], below 100 nM.
Still for that read-out and setting: in the case of `C#C[C@@H](Nc1ncnc2c1cc(C1=CC3CCC(C1)O3)c(=O)n2C)c1cccc(C(F)F)c1F` (some centres unmarked) [Compound 62] it was 100 to 500 nM.
For the compound `C#C[C@@H](Nc1ncnc2c1cc(C1=CC3CCC(C1)N3C(C)=O)c(=O)n2C)c1cccc(C(F)F)c1F` (some centres unmarked) [Compound 65], the IC50 in test [1] and in test [2] was below 100 nM each time.
As to `[2H]C([2H])([2H])n1c(=O)c(C2=CCN(C(C)=O)CC2)cc2c(N[C@H](C#C)c3cccc(C(F)(F)F)c3C)nc(C)nc21` [Compound 52, 6-(1-acetyl-1,2,3,6-tetrahydropyridin-4-yl)-8-(^2H3)methyl-2-methyl-4-{[(1R)-1-[2-methyl-3-(trifluoromethyl)phenyl]prop-2-yn-1-yl]amino}-7H,8H-pyrido[2,3-d]pyrimidin-7-one], the IC50 in test [1] is 100 to 500 nM.
With `C#C[C@@H](Nc1nc(C)nc2cc(=O)n(C3(C(F)F)CC3)cc12)c1cccc(C(F)F)c1F` [Compound 24, (R)-4-((1-(3-(difluoromethyl)-2-fluorophenyl)prop-2-yn-1-yl)amino)-6-(1-(difluoromethyl)cyclopropyl)-2-methylpyrido[4,3-d]pyrimidin-7(6H)-one], the IC50 in test [1] was 100 to 500 nM; in test [2] (setting [3]) it was below 100 nM.
On the same counts, the results for `C#C[C@@H](Nc1ncnc2c1cc(C1(F)CCN(C(C)=O)C1)c(=O)n2C)c1cccc(C(F)F)c1F` (stereo partly drawn) [Compound 45, 6-(1-acetyl-3-fluoropyrrolidin-3-yl)-4-{[(1R)-1-[3-(difluoromethyl)-2-fluorophenyl]prop-2-yn-1-yl]amino}-8-methyl-7H,8H-pyrido[2,3-d]pyrimidin-7-one] are below 100 nM and 100 to 200 nM.
Take `C#C[C@@H](Nc1ncnc2c1cc(C1(NC(C)=O)CC3CCC(C1)O3)c(=O)n2C)c1cccc(C(F)F)c1F` (stereo partly drawn) [Compound 61, N-(3(4-(((R)-1-3-(difluoromethyl)-2-fluorophenyl)prop-2-yn-1-yl)amino-8-methyl-7-oxo-7,8-dihydorpyrido[2,3-d]pyrimidin-6-yl)-8-oxabicyclo[3.2.1]octan-3-yl)acetamide]: the IC50 in test [1] lay in the range of 100 to 500 nM.
Regarding `[2H]C([2H])([2H])n1c(=O)c(C2(O)CCN(C(C)=O)CC2)cc2c(N[C@H](C#C)c3cccc(C(F)(F)F)c3C)nc(C)nc21` [Compound 51, 6-(1-acetyl-4-hydroxypiperidin-4-yl)-8-(^2H3)methyl-2-methyl-4-{[(1R)-1-[2-methyl-3-(trifluoromethyl)phenyl]prop-2-yn-1-yl]amino}-7H,8H-pyrido[2,3-d]pyrimidin-7-one], the IC50 in test [1] was below 100 nM; in test [2] (setting [3]), 100 to 200 nM.

These data come from US20220324862A1, “PYRIDOPYRIMIDINONE COMPOUNDS” (Acerand Therapeutics (USA) Limited, priority 2021, published 2022).
